Type in all cases: biochemical
One assay has as its target T1, Bovine insulin (Bos taurus, UniProt P01317).
T1 construct: purchased Sigma, St. Louis, Mo., USA
As to the kind of experiment: Insulin aggregation (turbidity at 360 nm) induced by DTT. The following applies: Insulin 0.25 mg/mL, 25° C., DTT; compound 100×; standard deviation in parenthesis. The protocol:
(§1) Bovine insulin [Sigma, St. Louis, Mo., USA] was dissolved in phosphate saline (PBS) (50 mM sodium biphosphate, 100 mM sodium chloride), pH 7.0, bovine alpha-lactalbumin [Sigma] in 50 mM sodium phosphate, 100 mM sodium chloride and 2 mM EDTA, pH 6.2, chicken egg white lysozyme [Sigma] in 100 mM Tris, 1 mM EDTA, pH 8.2, human acidic fibroblast growth factor (FGF-1) in 6.2 mM sodium biphosphate, 120 mM sodium chloride, pH 7.2, porcine somatotropin (pST) [provided by Pfizer, Inc., Groton, Conn., USA] in 10 mM phosphate, pH 6. 1, human apolactoferrin (HLF) [Sigma] in 20 mM HEPES, 154 mM NaCl, pH 7.4, porcine heart citrate synthase (CS) in 40 mM HEPES, 50 mM KCl, 10 mM (NH4)2SO4 mM potassium acetate, pH 7.8, and yeast alcohol dehydrogenase (ADH) [Sigma] in pH 7.0 PBS. Selection of buffer solutions was based on an extensive series of preliminary studies to obtain appropriate insolubilization kinetics as described below.
(§2) Copper O-phenanthroline (1,10-phenanthroline) was prepared by mixing copper sulfate hexahydrate [Fisher] and o-phenanthroline [Sigma] in a 1:2 ratio. 1 M Dithiothreitol (DTT) was prepared at pH 7.0 PBS. Polyethylene glycol (M.W. 8000, Union Carbide, Danbury, Conn., USA) (PEG) was prepared at 20 mg/mL in 10 mM phosphate, pH 6.1.
(§3) The following compounds were obtained from Sigma and used without further purification: oxalic acid, sodium malonate, succinic acid, glutaric acid, adipic acid, pimelic acid, suberic acid, azelaic acid, guanidine hydrochloride, ammonium formate, beta-alanine, 4-aminobutyric acid, 5-aminovaleric acid, 6-aminocaproic acid, 7-aminoheptanoic acid, hydrazine, ethylenediamine, 1,3-diaminopropane, 1,4-diaminobutane, 1,5-diaminopentane, 1,6-diaminohexane, 1,7-diaminoheptane, Glu-Glu, Glu-Lys, Lys-Lys, diglycine, triglycine, tetraglycine, pentaglycine, and hexaglycine. […] Triglycine and tetraglycine were dissolved in pH 8.6 PBS, while pentaglycine and hexaglycine were dissolved in pH 10.6 PBS.
(§4) Each was either dissolved in pH 7.0 PBS, or pH 6.1 10 mM phosphate, and adjusted to the same pH.
(§5) Protein aggregation was monitored for 1 hour at 360 nm using an HP8453 UV-visible spectrophotometer system [Hewlett Packard, Germany]. […] Insulin (0.25 mg/mL (4.39E-5 M)) aggregation was monitored at 25° C. after addition of potential inhibitors and 20 μL of 1 M DTT (1.27E-4 M). Alpha-lactabumin (0.4 mg/mL (2.82E-5 M)) aggregation was monitored at 37° C. in the presence of 20 μL of 1 M DTT (1.27E-4 M). Lysozyme (0.4 mg/mL (2.86E-5 M)) aggregation was monitored at 25° C. in the presence of 20 μL of 1 M DTT (1.27E-4 M). FGF-1 (50 μg/mL (3.12E-6 M)) aggregation was monitored at 50° C. Porcine somatotropin (1.27 mg/mL (5.76E-5 M)) aggregation was monitored at 60° C. in the presence of PEG 8000 (20 mg/mL) which was included to enhance the protein association process through a simple exclusion volume effect. HLF (0.4 mg/mL (5.23E-6 M)) aggregation was monitored at 43° C. in the presence of 1.27E-4 M DTT. Citrate synthase (96 μg/mL (9.80E-7 M)) aggregation was monitored at45° C. ADH (1 mg/mL (7.14E-6 M)) was monitored at 37° C. following the addition of 7.76E-5 M Cu(OP)2. Aggregation was compared to protein in the absence of the particular dipolar compound. After stirring, experiments were initiated by the addition of proteins followed by stressing reagents to 1 cm pathlength cuvettes employing a seven-position thermostatted sample holder that was cycled at 30-second intervals. Alternatively, a microtiter plate reader was employed under the same conditions in a 96 well format.
(§6) All optical density (OD)360nm versus time results were exported into Excel [Microsoft] for data analysis.

The target in assay [1] is T2, chicken egg white lysozyme (Gallus gallus, UniProt P00698).
T2 construct: chicken egg white lysozyme [Sigma]; purchased Sigma; host or cells: egg white
T2 sequence (P00698 19-147): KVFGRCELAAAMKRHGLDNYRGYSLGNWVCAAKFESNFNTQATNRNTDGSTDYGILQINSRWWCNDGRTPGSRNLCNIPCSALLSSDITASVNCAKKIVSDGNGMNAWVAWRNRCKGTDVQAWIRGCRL
As to the kind of experiment: Lysozyme aggregation (turbidity at 360 nm) induced by DTT. The following applies: Lysozyme 0.4 mg/mL, 25° C., DTT; compound 1,000×; standard deviation in parenthesis. On the procedure:
as §1, §2, §3, §4, §5, §6

The target in a further assay is T3, bovine alpha-lactalbumin (Bos taurus, UniProt P00711).
T3 construct: purchased Sigma
T3 sequence (P00711 20-142): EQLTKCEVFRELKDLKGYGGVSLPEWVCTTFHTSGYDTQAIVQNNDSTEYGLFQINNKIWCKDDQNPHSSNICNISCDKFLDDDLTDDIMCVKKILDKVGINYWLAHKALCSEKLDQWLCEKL
The assay can be described thus: Alpha-lactalbumin aggregation (turbidity at 360 nm) induced by DTT. The following applies: α Lactalbumin 0.4 mg/mL, 37° C., DTT; compound 1,000×; standard deviation in parenthesis. The protocol:
as §1, §2, §3, §4, §5, §6

Assay [2] concerns the target human acidic fibroblast growth factor (FGF-1) (Homo sapiens, UniProt P05230). The assay can be described thus: FGF-1 thermal aggregation (turbidity at 360 nm). The following applies: FGF-1 50 μg/mL, 50° C.; compound 1,000×; standard deviation in parenthesis. On the procedure: as §1, §3, §4, §5
(§7) All optical density (OD)360nm versus time results were exported into Excel [Microsoft] for data analysis. […] The maximum rate of change in OD versus time plots (r) was used to determine the rate of the reaction from the slope at this point.

Assay [3] deals with T4, human apolactoferrin (HLF) (Homo sapiens, UniProt P02788).
T4 construct: purchased Sigma
T4 sequence (P02788 20-710): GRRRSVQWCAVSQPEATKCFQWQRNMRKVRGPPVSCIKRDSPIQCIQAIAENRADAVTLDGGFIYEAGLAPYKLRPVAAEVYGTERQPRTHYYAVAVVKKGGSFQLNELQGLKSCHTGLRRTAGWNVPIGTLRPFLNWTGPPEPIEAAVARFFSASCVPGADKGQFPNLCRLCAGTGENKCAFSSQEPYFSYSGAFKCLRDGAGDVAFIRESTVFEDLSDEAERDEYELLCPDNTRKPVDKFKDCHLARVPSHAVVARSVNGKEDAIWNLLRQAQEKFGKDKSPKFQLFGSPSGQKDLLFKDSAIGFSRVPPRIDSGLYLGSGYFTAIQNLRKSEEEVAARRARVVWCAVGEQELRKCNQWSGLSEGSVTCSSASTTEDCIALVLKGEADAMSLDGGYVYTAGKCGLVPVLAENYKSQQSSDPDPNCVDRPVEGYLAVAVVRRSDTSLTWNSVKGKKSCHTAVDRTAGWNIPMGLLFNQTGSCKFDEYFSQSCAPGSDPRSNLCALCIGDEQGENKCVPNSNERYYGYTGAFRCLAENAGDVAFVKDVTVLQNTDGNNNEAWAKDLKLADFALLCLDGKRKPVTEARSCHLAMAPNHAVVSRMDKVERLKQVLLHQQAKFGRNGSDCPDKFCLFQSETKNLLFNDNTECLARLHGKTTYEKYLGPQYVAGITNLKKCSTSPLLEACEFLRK
As to the kind of experiment: HLF aggregation (turbidity at 360 nm) induced by DTT. The following applies: HLF 0.4 mg/mL, 43° C., DTT; first HLF column, head 10,000×; standard deviation in parenthesis. The protocol:
as §1, §2, §3, §4, §5, §6

The target of assay [4] is T5, porcine heart citrate synthase (CS) (Sus scrofa, UniProt P00889).
T5 construct: porcine heart citrate synthase (CS); from tissue; host or cells: porcine heart
T5 sequence (P00889 28-464): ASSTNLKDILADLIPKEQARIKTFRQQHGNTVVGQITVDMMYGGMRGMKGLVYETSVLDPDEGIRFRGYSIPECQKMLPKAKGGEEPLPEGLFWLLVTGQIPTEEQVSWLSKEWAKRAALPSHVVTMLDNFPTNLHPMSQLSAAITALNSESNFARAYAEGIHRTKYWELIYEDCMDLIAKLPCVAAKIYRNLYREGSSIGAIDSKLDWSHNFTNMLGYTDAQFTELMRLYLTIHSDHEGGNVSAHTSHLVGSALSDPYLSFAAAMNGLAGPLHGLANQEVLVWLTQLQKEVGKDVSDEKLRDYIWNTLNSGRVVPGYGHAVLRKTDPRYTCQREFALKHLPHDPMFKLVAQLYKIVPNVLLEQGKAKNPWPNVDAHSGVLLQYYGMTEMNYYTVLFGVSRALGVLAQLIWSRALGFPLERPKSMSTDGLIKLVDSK
As to the kind of experiment: Citrate synthase thermal aggregation (turbidity at 360 nm). The following applies: CS 96 μg/mL, 45° C.; compound 1,000X; standard deviation in parenthesis. On the procedure:
as §1, §3, §4, §5, §7

The target of assay [5] is T6, yeast alcohol dehydrogenase (ADH) (Saccharomyces cerevisiae, UniProt P00330).
T6 construct: purchased Sigma
T6 sequence (P00330 2-348 limits assumed): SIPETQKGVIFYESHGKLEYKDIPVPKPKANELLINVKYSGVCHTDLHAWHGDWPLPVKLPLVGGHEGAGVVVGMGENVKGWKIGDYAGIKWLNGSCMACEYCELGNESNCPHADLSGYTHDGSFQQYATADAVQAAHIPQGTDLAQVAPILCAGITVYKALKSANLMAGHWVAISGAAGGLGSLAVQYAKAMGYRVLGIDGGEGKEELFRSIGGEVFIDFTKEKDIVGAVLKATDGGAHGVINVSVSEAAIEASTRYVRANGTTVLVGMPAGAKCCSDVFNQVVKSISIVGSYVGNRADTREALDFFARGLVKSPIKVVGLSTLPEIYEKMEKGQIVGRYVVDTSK
The assay can be described thus: ADH oxidation-induced aggregation (turbidity at 360 nm), Cu(OP)2. The following applies: ADH 1 mg/mL, 37° C., Cu(OP)2; compound 1,000X; standard deviation in parenthesis. The protocol:
as §1, §2, §3, §4, §5, §6

The target in assay [6] is T7, porcine somatotropin (pST) (Sus scrofa, UniProt P01248).
T7 construct: purchased Pfizer, Inc., Groton, Conn., USA (provided, not bought)
T7 sequence (P01248 27-216): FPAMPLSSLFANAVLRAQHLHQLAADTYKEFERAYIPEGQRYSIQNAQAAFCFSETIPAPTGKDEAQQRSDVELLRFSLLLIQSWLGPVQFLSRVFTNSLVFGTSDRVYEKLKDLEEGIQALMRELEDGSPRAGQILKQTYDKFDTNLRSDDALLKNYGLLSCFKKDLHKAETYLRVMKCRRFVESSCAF
The assay can be described thus: Porcine somatotropin aggregation (turbidity at 360 nm) with PEG 8000. The following applies: pST 1.27 mg/mL, 60° C., compound 100X, standard deviation in parenthesis. The protocol:
as §1, §2, §3, §4, §5, §6

Sequence of human acidic fibroblast growth factor (FGF-1) (P05230 whole entry): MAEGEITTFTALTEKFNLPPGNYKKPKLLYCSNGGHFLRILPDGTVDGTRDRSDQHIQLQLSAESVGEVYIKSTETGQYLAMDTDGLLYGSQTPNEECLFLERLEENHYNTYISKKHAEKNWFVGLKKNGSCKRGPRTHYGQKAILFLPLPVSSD
T1 sequence (P01317 25-54 limits assumed): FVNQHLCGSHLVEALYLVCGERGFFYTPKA
T1 sequence (P01317 85-105 limits assumed): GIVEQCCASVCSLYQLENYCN

In the case of “^+NH3-(Lys)^+-(Gly)n-(Glu)^−-COO^− [KGGE]”, the inhibition index at Bovine insulin was 1.0 (0.3); in assay [1], 2.6 (0.4); at bovine alpha-lactalbumin it was 0.5 (0.2); in assay [2], 1.2 (0.2); in assay [3] it was 0.7 (0.1); in assay [4] it was 1.4 (0.4). In addition, the inhibition index is 0.8 (0.1) in assay [5] and 0.6 (0.1) in assay [6].

On to “^+NH3-(Lys)^+-(Gly)n-(Glu)^−-COO^− [KGGGE]”, for which the inhibition index is 0.8 (0.1) at Bovine insulin; 3.4 (0.1) in assay [1]; 0.6 (0.1) at bovine alpha-lactalbumin; 1.9 (0.2) in assay [2]; 0.8 (0.1) in assay [3]; 1.5 (0.1) in assay [4]. The figures for the inhibition index in assay [5] and in assay [6] were 1.2 (0.1) and 0.6 (0.1), respectively.

With “^+NH3-(Lys)^+-(Gly)n-(Glu)^−-COO^− [KGGGGE]”, the inhibition index on Bovine insulin is 1.0 (0.1); in assay [1] it was 1.9 (0.5); on bovine alpha-lactalbumin, 0.5 (0.1); in assay [2], 1.9 (0.4); in assay [3], 0.8 (0.1); in assay [4], 1.8 (0.2). The inhibition index is 1.4 (0.1) in assay [5] and 0.6 (0.1) in assay [6].

Consider “^+NH3-(Lys)^+-(Gly)n-(Lys)^+-CONH2 [^+NH3—(K)^+—(G)2—(K)^+—CONH2]”, for which the inhibition index on Bovine insulin is given as 1.8 (0.1); in assay [1], 0.4 (0.1); on bovine alpha-lactalbumin it was 3.3 (0.9); in assay [2], 1.8 (0.3); in assay [3] it was 1.3 (0.1); in assay [4] it was 0.7 (0.2). The values for the inhibition index in assay [5] and in assay [6] were 0.8 (0.1) and 1.2 (0.2), respectively.

Consider “^+NH3-(Lys)^+-(Gly)n-(Lys)^+-CONH2 [^+NH3—(K)^+—(G)4—(K)^+—CONH2]”, for which the inhibition index at Bovine insulin was 1.6 (0.3); in assay [1], 1.4 (0.5); on bovine alpha-lactalbumin, 1.4 (0.3); in assay [2] it was 2.0 (1.0); in assay [3] it was 1.9 (0.2); in assay [4] it was 0.8 (0.2). In addition, the inhibition index in assay [5] was 1.5 (0.3); in assay [6], 0.9 (0.0).

These data come from patent US20030125234A1, “Alteration of protein stability” (priority 2001, published 2003).
